What all share (test): Phosphatase activity of MKP3 mutant toward pNPP with ERK2
Common to all, as to assay type: biochemical
What all share (conditions): 1 µM enzyme, 1 µM ERK2, 8 mM pNPP, 2.5 μM BCI

One experiment has as its target T1, MKP3 E81G (Homo sapiens, UniProt Q16828, E81G).
T1 construct: MKP3(1–381) (MKP3^FL); made in house; host or cells: Escherichia coli BL21(DE3)
T1 sequence (Q16828 1-381 E81G): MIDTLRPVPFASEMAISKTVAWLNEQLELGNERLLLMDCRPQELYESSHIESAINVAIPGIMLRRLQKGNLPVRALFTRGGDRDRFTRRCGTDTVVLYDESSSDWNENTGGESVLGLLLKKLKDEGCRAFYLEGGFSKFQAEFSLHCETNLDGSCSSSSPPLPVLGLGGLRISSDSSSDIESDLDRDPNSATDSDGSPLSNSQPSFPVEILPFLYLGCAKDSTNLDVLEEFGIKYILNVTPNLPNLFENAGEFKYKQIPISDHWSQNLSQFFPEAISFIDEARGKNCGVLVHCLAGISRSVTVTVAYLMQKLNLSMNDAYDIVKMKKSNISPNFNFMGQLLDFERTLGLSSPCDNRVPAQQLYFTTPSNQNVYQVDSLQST
How it is done:
(§1) The phosphatase activity of MKP3 toward pNPP was measured using continuous spectrophotometric assays, either in the absence or the presence of ERK2 at a 1:1 M ratio with MKP3. Experiments were conducted at 25 °C in a reaction mixture with a total volume of 1.8 ml, containing 50 mM Mops (pH 7.0), 100 mM NaCl, and 0.1 mM EDTA. MKP3 (1 μM) was preincubated with varying concentrations of the inhibitor BCI for 5 min before initiating the reaction by adding pNPP at concentrations ranging from 0 to 14 mM. Continuous absorbance changes were recorded using a PerkinElmer LAMBDA 45 spectrophotometer equipped with a magnetic stirrer in the cuvette holder. The production of p-nitrophenol was monitored at 410 nm using an extinction coefficient of 18,000 M^-1 cm^-1.
(§2) Figure S2. Inhibition of full-length MKP3 mutant activity by BCI. The phosphatase activities (v0) of full-length MKP3 and its mutants (E81G, R83G, R85G, R87G, and R89A) at 1 µM concentration were measured using continuous spectrophotometric assays with 8 mM pNPP as the substrate, in the presence of ERK2 (1 µM), either without or with 2.5 μM BCI. Data are presented as mean ± SD (n = 3). Reactions were performed at 25 °C in a total volume of 1.8 mL, in a buffer containing 50 mM MOPS (pH 7.0), 100 mM NaCl, and 0.1 mM EDTA.

The target of a further experiment is T2, MKP3 R85G (Homo sapiens, UniProt Q16828, R85G).
T2 construct: MKP3(1–381) (MKP3^FL); made in house; host or cells: Escherichia coli BL21(DE3)
T2 sequence (Q16828 1-381 R85G): T1 sequence (Q16828 1-381 E81G) with G81E, R85G
How it is done: as §1, §2

For another experiment, the target named is T3, MKP3 R89A (Homo sapiens, UniProt Q16828, R89A).
T3 construct: MKP3(1–381) (MKP3^FL); made in house; host or cells: Escherichia coli BL21(DE3)
T3 sequence (Q16828 1-381 R89A): T1 sequence (Q16828 1-381 E81G) with G81E, R89A
Here is the method:
as §1, §2

The target in another experiment is T4, MKP3 R83G (Homo sapiens, UniProt Q16828, R83G).
T4 construct: MKP3(1–381) (MKP3^FL); made in house; host or cells: Escherichia coli BL21(DE3)
T4 sequence (Q16828 1-381 R83G): T1 sequence (Q16828 1-381 E81G) with G81E, R83G
Here is the method: as §1, §2

The next experiment has as its target T5, MKP3 T87G (Homo sapiens, UniProt Q16828, T87G).
T5 construct: MKP3(1–381) (MKP3^FL); made in house; host or cells: Escherichia coli BL21(DE3)
T5 sequence (Q16828 1-381 T87G): T1 sequence (Q16828 1-381 E81G) with G81E, T87G
How it is done: as §1, §2

Changes are numbered by the printed parent chain.

Consider `O=C1/C(=C/c2ccccc2)C(NC2CCCCC2)c2ccccc21` (centres unmarked) [BCI, (E)-2-benzylidene-3-(cyclohexylamino)-2,3-dihydro-1H-inden-1-one], for which the “enzymatic activity upon BCI addition compared with MKP3^WT” value at MKP3 E81G was “higher enzymatic activity than WT MKP3”; at MKP3 R85G it was “BCI inhibition comparable to MKP3^WT”; on MKP3 R89A it was “higher enzymatic activity than WT MKP3”; on MKP3 R83G, “higher enzymatic activity than WT MKP3”; on MKP3 T87G, “BCI inhibition comparable to MKP3^WT”.

Values taken from publication PMC12444472, “BCI inhibits MKP3 by targeting the kinase-binding domain and disrupting ERK2 interaction” (The Journal of Biological Chemistry, 2025).
